US20080118437A1, “Diagnosis and treatment O prostate cancer” (Regents of the University of Michigan, priority 2006, published 2008)

Legend:
VCaP cells [1] = experiment: Immunoblot analysis of CCL2 stimulated VCaP cells; format: cell-based, human; settings: CCL2 100 ng/mL for 24 hours
Experimental: Cells were lysed in RIPA buffer (50 mM Tris-HCl, pH 7.4, 1% NP-40, 150 mM NaCl, 1 mM EDTA, 1 mM PMSF, 1 mM Na3VO4, 1 mM NaF, 1 μM okadaic acid and 1 μg/mL aprotinin, leupeptin and pepstatin). Proteins were separated under reducing conditions by SDS-PAGE and transferred onto nitrocellulose membranes. The membranes were blocked with 5% milk in TBST (0.1% Tween in TBS) for 1 hour at room temperature, then were incubated overnight at 4° C. with primary antibodies. Membranes were washed 3 times prior to incubation with HRP-conjugated secondary antibodies (Cell Signaling) for 1 hour at room temperature. Protein expression was visualized by ECL chemiluminescence (Promega, Madison, Wis.) and quantitated using Image J software (NCl, Bethesda, Md.).

[2] = system: HDMVEC (human dermal microvacular endothelial cells); experiment: Endothelial tube formation assay in VCaP conditioned media; format: cell-based; settings: 30 μg/mL in VCaP conditioned media; vs isotype control antibody
Experimental: In vitro tube formation was performed as previously described (Zhou et al., Int J Cancer 110 (2004) 800-806). Growth factor reduced […] was diluted with cold serum-free medium to a concentration of 10 mg/ml. 50 μl of the solution was added to each well of a 96-well plate and allowed to form a gel at 37° C. for 30 min. HDMVEC (human dermal microvacular endothelial cells) cells (150,000 cells/ml) in VCaP conditioned media (VCaP CM) were added to each well and incubated overnight at 37° C. in 5% CO2. […] Under these conditions, EC will form delicate networks of tubes that are detectable within 2-3 h and are fully developed after 8-12 h. After overnight incubation the wells were washed, and the […] and its endothelial tubes were fixed with 3% paraformaldehyde. Tube formation was quantified by counting the number of sprouts that developed per objective field (100×) and assays were performed in triplicate from 3 independent experiments.

VCaP cells [3] = experiment: Fluorescence-based migration assay toward hrMCP-1; format: cell-based, human; settings: MCP-1 1-100 ng/mL
Experimental: (§1) Flouresence-based Migration Assay—Cell migration was assessed using the Innocyte Cell Migration Assay (Calbiochem, Inc.) following the manufacturer's instructions. Briefly, increasing concentrations of MCP-1 (1-100 ng/mL) in the presence and absence of CCR2 inhibitors or neutralizing antibodies were added to the lower chamber of a 96 well plate. Cells were harvested by 0.5 μM EDTA release and resuspended at 2.5×10^5 cells/mL in serum free media. 2.5×10^4 cells were added to the upper chamber and allowed to migrate through the membrane with 8 μm pores for 24 hours at 37° C. and 5% CO2 atmosphere. Cells that migrated through the membrane were detached and labeled with Calcein AM and fluorescence was measured using fluorescent plate reader with excitation wavelength of 485 nm and emission wavelength of 520 nm. The experiments were repeated twice and each conditioned was performed in quadruplicate in each experiment.

PC-3 cells = experiment: Fluorescence-based migration assay toward hrMCP-1; format: cell-based, human; settings: MCP-1 1-100 ng/mL
Experimental: as §1

Q: How did the “CCL2 induced Akt phosphorylation and p44/p42 MAPK phosphorylation” value (VCaP cells [1]) turn out when “CNTO888: human IgG1κ antibody that neutralizes human CCL2” was run?
A: The value was “attenuated”.

Q: What about the “number of capillary-like tubes formed” value [2] of the same substance?
A: The value was “significantly reduced”.

Q: What about the “effect on MCP-1 induced dose dependent migration of VCaP cells” value (VCaP cells [3]) of the same substance?
A: Its value is “attenuated”.

Q: What about the “effect on MCP-1 induced dose dependent migration of PC-3 cells” value (PC-3 cells) of the same substance?
A: The value was “attenuated”.
